Laboratory results taken from patent publication US20100137344A1, “INDUCTION OF ANALGESIA IN NEUROPATHIC PAIN” (University Court of the University of Edinburgh, priority 2006, published 2010).

How the values were obtained:
Assay type in all cases: in vivo, rat
[1] = system: rats with chronic constriction injury (CCI) to sciatic nerve; assay: Intrathecal application in CCI rats, behavioural reflex testing (PWL, PWT); settings: for mean percentage reversal of sensitisation by (−)-menthol with antagonist, PWL / mean percentage reversal of sensitisation by (−)-menthol with antagonist, PWT: (−)-menthol 200 nmol plus intrathecal antagonist, 20-30 minutes post-injection; for effect on analgesia by intrathecal icilin: LY 341495 5 nmol, UBP 1112 10 nmol co-administered with icilin 10 nmol; for effect of antagonist alone: intrathecal, data not shown
Method: Pain models were generated under halothane anaesthesia (Zeneca, Cheshire, UK). For the chronic constriction injury (CCI) model of neuropathic pain, four ligatures were tied loosely to constrict the sciatic nerve at mid-thigh level (as described previously^[39]). An inflammatory pain model was generated by injecting 100 μl of Complete Freund's Adjuvant (CFA, Sigma-Aldrich Ltd) into the ventral surface of the right hindpaw^[39]. A model of peripheral demyelination-induced pain was produced by focal application of lysolecithin to the sciatic nerve^[40]. Peak behavioural sensitisation was observed post-surgically between days 10-16 for CCI, 1-3 for CFA, and 7-14 for lysolecithin, when pharmacological and electrophysiological experiments and tissue removal were conducted.
(§1) Thermal sensitivity was assessed by measuring paw withdrawal latency (PWL, s) in response to a noxious thermal stimulus (Hargreaves' thermal stimulator, Linton Instrumentation, Diss, UK) directed to the hindpaw mid-plantar glabrous surface. Mechanical sensitivity was recorded as the paw withdrawal threshold (PWT, mN/mm^2) to calibrated von Frey filaments (Stoelting, Ill., US), as previously described^[39]. Sensitivity to noxious cold was assessed by placing animals in a waterbath with an aluminium floor containing 1 cm deep 4° C. water and counting the time the paw was held suspended over a 20 s period.
(§2) The following drugs were applied intrathecally in a 50 μl volume of saline-based vehicle at 37° C.: icilin (2.5-200 μM in saline with 0.2% dimethylformamide, DMF), LY 341495 (100 μM in saline), UBP 1112 (200 μM in saline), 2R,4R-APDC ((2R, 4R)-4-aminopyrrolidine-2,4-dicarboxylate), 300 μM in saline), ACPT-III ((1R,3R,4S)-1-aminocyclopentane-1,3,4-tricarboxylic acid), 3 mM in saline), AP-4, ((L-(1)-2-amino-4-phosphonobutyric acid), 3 mM in saline), naloxone (0.5 mM in saline), NMDA (75 μM in saline) and ACPC (1-aminocyclopropanecarboxylic acid, 15 μM in saline) (Tocris Cookson, Bristol, UK), (−)-menthol (1R,2S,5R-(−)-menthol, 4 mM in saline), cinnamaldehyde (1.5 mM in saline) and Ruthenium Red (5 μM in saline) (Sigma-Aldrich Co. Ltd, UK) and allicin (0.5 mM in saline with 0.5% DMF) and diallyl disulphide (DADS, 1 mM in saline with 0.5% DMF) (LKT Laboratories Inc., St Paul, Minn., USA). Drugs were injected into the L5/6 intrathecal space under brief halothane anaesthesia, using a 25-gauge needle microsyringe (BD Biosciences, Oxford, UK), as described previously^[39] in animals that were at peak levels of behavioural sensitisation. Behavioural reflex testing commenced 15 min following injection to allow recovery from anaesthesia^[40,41,42] and continued every 5 min thereafter until readings returned to baseline levels (n=6 in each case). We, and others^[40,41,42] find complete recovery from anaesthetic by 15 minutes. All appropriate controls were carried out to eliminate the possibility of effects due to vehicle or to injection procedure.
(§3) The TRPM8 channel activators, icilin and (−)-menthol were tested in CCI and naïve animals. The effects of icilin were additionally assessed in animals with CFA-induced inflammation or with lysolecithin-induced demyelination. Icilin was also co-administered with the μ-opioid receptor antagonist naloxone, the Group II metabotropic glutamate receptor (mGluR) antagonist, LY 341495, or the Group III mGluR antagonist, UBP 1112. The effects of these antagonists alone as well as effects of the Group II mGluR agonist, 2R,4R-APDC and the Group III mGluR agonists, ACPT-III and AP-4, were assessed in CCI animals. The TRPA1 channel activator, cinnamaldehyde, alone and with icilin, was tested in CCI animals and in naïve animals. Further TRPA1 channel activators, allicin and diallyl disulphide were assessed in naïve animals. Both icilin and cinnamaldehyde effects in CCI animals were also investigated in the additional presence of Ruthenium Red.

[2] = system: rats with chronic constriction injury (CCI); assay: Cooling (16° C.)-induced analgesia in CCI rats with intrathecal mGluR antagonists; settings: skin cooling to 16° C.; intrathecal LY 341495 5 nmol or UBP 1112 10 nmol
Method: Icilin was applied at concentrations of 2.5-500 μM (in water with 0.2% DMF), by placing CCI or naïve rats unrestrained for 5 min in a 1 cm deep waterbath (sufficient to cover paws), which was thermostatically controlled to a temperature of 30° C., or by very lightly anaesthetising rats and immersing hindpaws in small tubes containing 5 ml icilin (500 μM-5 mM, with a vehicle of 45% dimethylformamide in 0.2% aqueous Tween 80) for 5 min, followed by sensory testing for 60-80 mins. The effects of (−)-menthol and its stereoisomers isomenthol (1S,2R,5R-menthol,) and (+)-menthol (1S,2R,5S(+)-menthol) (4-16 mM in 80% ethanol) were also assessed. Relevant vehicles were always assessed in similar experiments. As a contrast, the effect of cinnamaldehyde (1.5 mM in water) and the effect of cinnamaldehyde with additional icilin (80 μM in water with 0.2% DMF) were assessed in naïve animals. The effects of icilin (80 μM) were further assessed in CCI animals that had undergone antisense and mis-sense treatment for knockdown of TRPM8 or immediately following intrathecal injection of either LY 341495 or UBP 1112. […] The effects of brief paw immersion at different temperatures (10-22° C. for 5 min) on CCI rats were assessed by mechanical testing. The effects of intrathecal LY 341495 or UBP 1112 on the reversal of ipsilateral sensitisation in CCI following a 16° C. cool challenge for 5 min were measured. […]

[3] = system: rats with chronic constriction injury (CCI) to sciatic nerve; assay: Topical application to paws of CCI rats, behavioural reflex testing (thermal PWL, mechanical PWT); settings: icilin 200 μM topical; mGluR antagonists intrathecally
dorsal horn neurons = assay: Extracellular recordings of single spinal dorsal horn neurons in CCI animals (brush-evoked firing)
Method: Peripheral: Recordings of saphenous (sensory) nerve were made in naïve animals (n=7) to assess the effects of topical icilin on primary afferents. In addition, recordings were carried out on animals which had undergone TRPM8 antisense or mis-sense treatment beginning 4-5 days previously. Rats were anaesthetised (with 0.6 ml 25% urethane/100 g, i.p.) and the saphenous nerve was exposed and dissected from its associated vein and artery. Further dissection under liquid paraffin enabled identification of afferent preparations comprising a small number of fibres. The conduction velocity of single identified afferent fibres was determined using bipolar electrodes and the peripheral stimulus technique^[43]. Following isolation of preparations, icilin (200 μM in water with 0.2% DMF), (−)-menthol (4 mM in 25% ethanol) resiniferatoxin (1 mM in ethanol) or vehicle alone were applied to the hindlimb receptive fields and neuronal responses recorded using the Chart programme (version 3.6). Central: Recordings of spinal dorsal horn neurons were made in CCI animals, as described previously^[39]. Following halothane induction, the jugular vein and trachea were canulated and intravenous anaesthetic delivered: α-chloralose ([…], Fisher) and urethane ([…], Sigma), with small supplementary doses of α-chloralose as required throughout the experiment. Core body temperature was maintained at 37-38° C. by means of a thermostatically controlled heated blanket. The animal was placed in a stereotaxic frame, and the thoracolumbar spinal column was supported using three pairs of swan-necked clamps. A laminectomy was performed at L2-L5, and agar (2% in saline at 37° C.) was delivered over exposed cord to increase mechanical stability. Above the recording region the agar and spinal cord dura were removed and liquid paraffin poured into the pool. Extracellular recordings were made from single multireceptive neurons in laminae I-IV through the centre barrel of a seven-barrelled glass microelectrode filled with 4M NaCl (tip-diameter […], DC resistance 5-8 MΩ). The receptive fields of hair-follicle innervated neurons on the distal hindlimb were identified by an innocuous brush stimulus^[39]. Icilin (200 μM in water with 0.2% DMF) was applied peripherally to the receptive field of individual recorded neurons, and the effect on neuronal response to a rotating brush was recorded and analysed using Spike2 programme (Version 3.2, CED). The Group III mGluR antagonist UBP 1112 (20 mM in water), pH 8.5, and control 1M NaCl, pH 8.5 were ionophoresed from the side barrels of the electrode using currents of between 20 nA and 80 nA (Neurophore BH2 ionophoresis system, Medical Systems, Great Neck, N.Y.) to measure effects on neuronal response to icilin.

naïve rats [4] = assay: Intrathecal application in naïve rats, behavioural reflex testing (PWL, PWT); settings: naïve animals, cinnamaldehyde 75 nmol, allicin 25 nmol
Method: as §1, §2, §3

naïve rats [5] = assay: Topical application to paws of naïve rats, behavioural reflex testing (PWL, PWT); settings: topical cinnamaldehyde 1.5 mM; bilateral
Method: as §1
Icilin was applied at concentrations of 2.5-500 μM (in water with 0.2% DMF), by placing CCI or naïve rats unrestrained for 5 min in a 1 cm deep waterbath (sufficient to cover paws), which was thermostatically controlled to a temperature of 30° C., or by very lightly anaesthetising rats and immersing hindpaws in small tubes containing 5 ml icilin (500 μM-5 mM, with a vehicle of 45% dimethylformamide in 0.2% aqueous Tween 80) for 5 min, followed by sensory testing for 60-80 mins. The effects of (−)-menthol and its stereoisomers isomenthol (1S,2R,5R-menthol,) and (+)-menthol (1S,2R,5S(+)-menthol) (4-16 mM in 80% ethanol) were also assessed. Relevant vehicles were always assessed in similar experiments. As a contrast, the effect of cinnamaldehyde (1.5 mM in water) and the effect of cinnamaldehyde with additional icilin (80 μM in water with 0.2% DMF) were assessed in naïve animals. The effects of icilin (80 μM) were further assessed in CCI animals that had undergone antisense and mis-sense treatment for knockdown of TRPM8 or immediately following intrathecal injection of either LY 341495 or UBP 1112. […] The effects of brief paw immersion at different temperatures (10-22° C. for 5 min) on CCI rats were assessed by mechanical testing. The effects of intrathecal LY 341495 or UBP 1112 on the reversal of ipsilateral sensitisation in CCI following a 16° C. cool challenge for 5 min were measured. Reflex testing commenced 5 minutes following challenge, unless animals had been anaesthetised, in which case 15 minutes was allowed for recovery. Six replicate animals were tested in all pharmacological experiments.

[6] = system: rats sensitised by the TRPA1 activator cinnamaldehyde; assay: Cinnamaldehyde-induced sensitisation and its reversal by icilin (PWL, PWT); settings: difference from prior baseline, no icilin
Method: as §1, §2, §3
Icilin was applied at concentrations of 2.5-500 μM (in water with 0.2% DMF), by placing CCI or naïve rats unrestrained for 5 min in a 1 cm deep waterbath (sufficient to cover paws), which was thermostatically controlled to a temperature of 30° C., or by very lightly anaesthetising rats and immersing hindpaws in small tubes containing 5 ml icilin (500 μM-5 mM, with a vehicle of 45% dimethylformamide in 0.2% aqueous Tween 80) for 5 min, followed by sensory testing for 60-80 mins. The effects of (−)-menthol and its stereoisomers isomenthol (1S,2R,5R-menthol,) and (+)-menthol (1S,2R,5S(+)-menthol) (4-16 mM in 80% ethanol) were also assessed. Relevant vehicles were always assessed in similar experiments. As a contrast, the effect of cinnamaldehyde (1.5 mM in water) and the effect of cinnamaldehyde with additional icilin (80 μM in water with 0.2% DMF) were assessed in naïve animals. […]

| Compound | mean percentage reversal of sensitisation by (−)-menthol with antagonist, PWL [1] | mean percentage reversal of sensitisation by (−)-menthol with antagonist, PWT [1] | effect on analgesia by intrathecal icilin [1] | effect of antagonist alone [1] | mean percentage reversal of ipsilateral CCI-induced reductions in PWT caused by cooling [2] | effect on reversal of thermal and mechanical sensitisation by topical icilin [3] | reduction in PWL (naïve rats [4]; diallyl disulphide 50 mmol) | reduction in PWT (naïve rats [4]; diallyl disulphide 50 mmol) | further results |
| --- | --- | --- | --- | --- | --- | --- | --- | --- | --- |
| N[C@](CC1c2ccccc2Oc2ccccc21)(C(=O)O)[C@H]1C[C@@H]1C(=O)O [LY 341495] | 22.0±6.9% | 7.1±7.1% | prevented the effect of icilin | Neither LY 341495 nor UBP 1112 had any effects alone | 0.0±0.0% | prevented | – | – | – |
| Cc1cc(C(C)(N)C(=O)O)ccc1P(=O)(O)O (stereo not drawn) [UBP 1112] | 9.2±6.9% | 0.0±0.0% | prevented the effect of icilin | Neither LY 341495 nor UBP 1112 had any effects alone | 0.0±0.0% | prevented | – | – | brush-induced firing rate with icilin plus UBP 1112 (dorsal horn neurons; UBP 1112 ionophoresed at 20-60 nA, icilin 200 μM topical): 80.2±9.3 % of control values; effect of UBP 1112 alone on neuronal responses (dorsal horn neurons; ionophoresis): had no effect alone |
| C=CCS[S+]([O-])CC=C (stereo not drawn) [allicin] | – | – | – | – | – | – | 33.2±5.9% | 20.7±8.2% | – |
| O=CC=Cc1ccccc1 [cinnamaldehyde] | – | – | – | – | – | – | 36.9±7.9% | 41.9±6.7% | mean decrease in PWL (naïve rats [5]): 32.0±8.6%; mean decrease in PWT (naïve rats [5]): 20.2±8.2%; reflex responsiveness in thermal and mechanical tests ([1]; cinnamaldehyde 75 nmol intrathecal, contralateral as well as ipsilateral to nerve injury): significantly increased reflex responsiveness; PWL (s) difference from control (no drug) ([6]; cinnamaldehyde intrathecal): 5.9 ± 0.9 s; PWT (mN/mm^2) difference from control (no drug) ([6]; cinnamaldehyde intrathecal): 2022.6 ± 375.4 mN/mm^2; PWL (s) difference from control (no drug) ([6]; cinnamaldehyde topical): 5.0 ± 1.5 s; PWT (mN/mm^2) difference from control (no drug) ([6]; cinnamaldehyde topical): 1002.0 ± 316.8 mN/mm^2 |
| C=CCSSCC=C [diallyl disulphide] | – | – | – | – | – | – | – | 28.5±6.2% | reduction in PWL (naïve rats [4]; diallyl disulphide): 25.9±7.0% |
